One assay relates to pepsin secretion. Kind of assay: Preventive effect on pepsin secretion in pylorus-ligated rats. The assay is classed as in vivo, Male SD-strain rats. The settings on record: 100 mg/kg oral, 5 h after administration. Here is the method: (§1) Preventive effect on acid and pepsin secretions
(§2) Male SD-strain rats (6 to 7 weeks old) were starved for 48 hours, and then the pylori were ligated. Immediately after ligation, a solution or suspension of a test compound in distilled water was administered orally into the stomachs in an amount of 0.2 ml per 100 g of body weight (Dose: 100 mg/kg). Five hours after said administration of the test compound, the rats were sacrificed and the stomachs were removed. The gastric contents were centrifuged at 2,500 rpm for 10 minutes and the gastric juice was collected as the supernatant. The concentration of pepsin in the gastric juice was determined by Anson's method (c.f., J. Gen. Physiol., 22, pp. 77-89 (1938)) using hemoglobin as the substrate, and the preventive effect of the test compound on the pepsin secretion was estimated in terms of "decrease in pepsin concentration" according to the following formula: [formula]

A further assay concerns gastric acid secretion. Nature of the assay: Preventive effect on gastric acid secretion in pylorus-ligated rats. The assay is classed as in vivo, Male SD-strain rats. Conditions: 100 mg/kg oral, 5 h after administration. The method, then:
as §1, §2
On the other hand, the concentration of free acid in the gastric juice was determined by titrating said gastric juice to pH 7.0 with 0.1N NaOH, and the preventive effect of the test compound on the gastric acid secretion was estimated in terms of "the decrease in acidity of gastric juice" according to the following formula: [formula] (Results)

A further assay concerns aspirin-induced ulcers. Kind of assay: Effect on aspirin-induced ulcers. The assay is classed as in vivo, Male Donryu-strain rats. The settings on record: aspirin 200 mg/kg. The method, then: Male Donryu-strain rats (8 to 9 weeks old) were starved overnight, and a solution or suspension of a test compound in distilled water was administered orally into the stomachs in an amount of one ml per 100 g of body weight. Half an hour later, a suspension of aspirin in 0.25% CMC solution was administered orally to the rats in an amount of 0.5 ml per 100 g of body weight (Dose: 200 mg/kg). Four hours after the administration of aspirin, the rats were sacrificed and the stomachs were removed and inflated by injecting 10 ml of 1% formalin solution to fix the inner layers of the gastric walls. The stomach was then incised along the greater curvature and the lengths of the lesions were measured and summated to give ulcer index (in mm) for each animal. The preventive effect of the test compound on aspirin-induced ulcers were calculated by the following formula: [formula] (Results)

Where a name gives a salt, the structure may show the parent alone.

`CC(C)c1cc2c(cc1S(=O)(=O)O)[C@@]1(C)CCC[C@@](C)(C(=O)O)[C@@H]1CC2` [2 (2-Dimethylaminoethyl)amine salt, sulfodehydroabietic acid di(2-dimethylaminoethylamine)salt monohydrate]: the “Decrease (%) in pepsin concentration” value in the assay with pepsin secretion (monohydrate) was 92%. Moreover, the “Decrease (%) in acidity of gastric juice” value in the assay with gastric acid secretion (monohydrate) stood at 31%.

On to `CC(C)c1cc2c(cc1S(=O)(=O)O)[C@@]1(C)CCC[C@@](C)(C(=O)O)[C@@H]1CC2` [2 (2-Methoxyethyl)amine salt, sulfodehydroabietic acid di(2-methoxyethylamine)salt], for which, in the assay with pepsin secretion, the “Decrease (%) in pepsin concentration” value came to 98%.

On to `CC(C)c1cc2c(cc1S(=O)(=O)O)[C@@]1(C)CCC[C@@](C)(C(=O)O)[C@@H]1CC2` [2 Cyclohexylamine salt, sulfodehydroabietic acid di(cyclohexylamine)salt], for which the “Decrease (%) in pepsin concentration” value in the assay on pepsin secretion is given as 71%.

For the compound `CC(C)c1cc2c(cc1S(=O)(=O)O)[C@@]1(C)CCC[C@@](C)(C(=O)O)[C@@H]1CC2` [2 Isopropylamine salt, sulfodehydroabietic acid di(isopropylamine)salt], in the assay with pepsin secretion, the “Decrease (%) in pepsin concentration” value is reported as 95%. Further, the “Decrease (%) in acidity of gastric juice” value in the assay with gastric acid secretion worked out at 40%.

Turning to `CC(C)c1cc2c(cc1S(=O)(=O)O)[C@@]1(C)CCC[C@@](C)(C(=O)O)[C@@H]1CC2` [2 Morpholine salt, sulfodehydroabietic acid dimorpholine salt hemihydrate], in the assay on pepsin secretion (hemihydrate), the “Decrease (%) in pepsin concentration” value is 92%.

Consider `CC(C)c1cc2c(cc1S(=O)(=O)O)[C@@]1(C)CCC[C@@](C)(C(=O)O)[C@@H]1CC2` [2/3 Aluminum salt, sulfodehydroabietic acid 2/3 aluminum ssalt 7/3 hydrate], for which, in the assay with pepsin secretion (hydrate), the “Decrease (%) in pepsin concentration” value turned out to be 95%.

Regarding `CC(C)c1cc2c(cc1S(=O)(=O)O)[C@@]1(C)CCC[C@@](C)(C(=O)O)[C@@H]1CC2` [Carnosine salt, sulfodehydroabietic acic carnosine salt monohydrate], the “Preventive effect on aspirin-induced ulcers” value with aspirin-induced ulcers (p.o. 2 m mol./kg (1,248 mg/kg)) was found to be 33%. Also, in the assay on pepsin secretion (monohydrate), the “Decrease (%) in pepsin concentration” value was determined as 72%.

Take `CC(C)c1cc2c(cc1S(=O)(=O)O)[C@@]1(C)CCC[C@@](C)(C(=O)O)[C@@H]1CC2` [Ethylenediamine salt, sulfodehydroabietic acid ethylenediamine salt hemihydrate]: the “Decrease (%) in pepsin concentration” value with pepsin secretion (hemihydrate) stood at 94%.

In the case of `CC(C)c1cc2c(cc1S(=O)(=O)O)[C@@]1(C)CCC[C@@](C)(C(=O)O)[C@@H]1CC2` [Hexamethylenediamine salt, sulfodehydroabietic acid hexamethylenediamine salt hemihydrate], the “Decrease (%) in pepsin concentration” value in the assay with pepsin secretion (hemihydrate) came to 94%. The “Decrease (%) in acidity of gastric juice” value in the assay on gastric acid secretion (hemihydrate) turned out to be 32%.

Take `CC(C)c1cc2c(cc1S(=O)(=O)O)[C@@]1(C)CCC[C@@](C)(C(=O)O)[C@@H]1CC2` [L-Arginine salt, sulfodehydroabietic acid L-arginine salt hemihydrate]: in the assay with pepsin secretion (hemihydrate), the “Decrease (%) in pepsin concentration” value is listed as 77%.

For `CC(C)c1cc2c(cc1S(=O)(=O)O)[C@@]1(C)CCC[C@@](C)(C(=O)O)[C@@H]1CC2` [L-Asparagine salt, sulfodehydroabietic acid L-asparagine salt monohydrate], the “Decrease (%) in pepsin concentration” value in the assay with pepsin secretion (monohydrate) is on record as 90%. Moreover, in the assay on gastric acid secretion (monohydrate), the “Decrease (%) in acidity of gastric juice” value was 38%.

For the compound `CC(C)c1cc2c(cc1S(=O)(=O)O)[C@@]1(C)CCC[C@@](C)(C(=O)O)[C@@H]1CC2` [L-Glutamine salt, sulfodehydroabietic acid L-glutamine salt hemihydrate], the “Decrease (%) in pepsin concentration” value in the assay with pepsin secretion (hemihydrate) was found to be 90%. Besides, the “Decrease (%) in acidity of gastric juice” value with gastric acid secretion (hemihydrate) amounted to 39%.

With `CC(C)c1cc2c(cc1S(=O)(=O)O)[C@@]1(C)CCC[C@@](C)(C(=O)O)[C@@H]1CC2` [L-Lysine salt, sulfodehydroabietic acid L-lysine salt monohydrate], in the assay with pepsin secretion (monohydrate), the “Decrease (%) in pepsin concentration” value was 94%.

Regarding `CC(C)c1cc2c(cc1S(=O)(=O)O)[C@@]1(C)CCC[C@@](C)(C(=O)O)[C@@H]1CC2` [L-S--Methylmethionine salt, sulfodehydroabietic acid S-methyl-L-methionine salt dihydrate], the “Preventive effect on aspirin-induced ulcers” value with aspirin-induced ulcers (p.o. 2 m mol./kg (1,086 mg/kg)) was found to be 85%. Further, the “Decrease (%) in pepsin concentration” value in the assay with pepsin secretion (dihydrate) was determined as 84%.

As for `CC(C)c1cc2c(cc1S(=O)(=O)O)[C@@]1(C)CCC[C@@](C)(C(=O)O)[C@@H]1CC2` [Tetramethylenediamine salt, sulfodehydroabietic acid tetramethylenediamine salt hemihydrate], the “Decrease (%) in pepsin concentration” value in the assay with pepsin secretion (hemihydrate) is given as 84%. The “Decrease (%) in acidity of gastric juice” value with gastric acid secretion (hemihydrate) was determined as 36%.

On to “sulfodehydroabietic acid (aluminum monohydroxide) [Aluminum monohydroxide salt]”, for which the “Decrease (%) in pepsin concentration” value in the assay with pepsin secretion stood at 91%.

In the case of “sulfodehydroabietic acid di(aluminum dihydroxide)salt dihydrate [2 Aluminum dihydroxide salt]”, the “Decrease (%) in pepsin concentration” value with pepsin secretion amounted to 69%.

Source of the values: patent US4529602A, “Method for treatment or prophylaxis of gastro-intestinal disease” (priority 1981, dated 1985).
